Patent publication US20090291156A1, “HERBAL COMPOSITION FOR SKIN CARE” (SAGITTARIUS LIFE SCIENCE CORP., priority 2008, published 2009)

Experiments:
[1] = test system: dermal fibroblast collagen and glycosaminoglycan synthesis; assay: Stimulation of dermal fibroblast collagen and glycosaminoglycan synthesis (Sirius red, Safranin O, Alcian blue staining); assay type: cell-based, Human
Method: Human foreskin dermal fibroblasts were cultured in DMEM+10% FCS+Penicillin G (100 unit/ml)/Streptomycin (100 ug/ml)+Glutamine (2 mM)+Sodium pyruvate (0.1 mM) (C-medium) under humidifying atmosphere containing 5% CO2 at 37° C.
5×10^4 cells were plated into each well of 48 multiwell plate. Three to four days later, the cells reached confluency. The medium was replaced with fresh C-medium with or without H2O2 containing 25 ug/ml vitamin C with herbal preparations, Genistein or vitamin A. After treatment for 7 days, the cells were fixed with 10% formalin in saline, and stained with Sirius red, Safranin O or Alcian blue (at pH2.5 for hyaluronic acid staining). The relative amount of extracellular matrix deposition was estimated by visual comparison of the intensity and area of the respective stains.
At the end of treatments, the cells were washed twice with PBS, and were irradiated by UV (365 nm) at 20 mJ/cm^2 in PBS. Fresh serum free medium was replaced, and the cells were fixed and stained 24 hours later.

[2] = Radical scavenging activity examined by DPPH; assay type: biochemical; details: 0.1 mM DPPH, 30 minutes
Method: Herbal preparations with the designated final concentrations was mixed with 0.1 mM DPPH (2,2-diphenyl-1-picrylhydrazyl), incubated at room temperature in dark for 30 minutes. Absorbance at 517 nm was read by Varian Cary 50 Tablet UV-Visible Spectrophotometer. Vitamin C and vitamin E served as positive controls.

O=c1c(-c2ccc(O)cc2)coc2cc(O)cc(O)c12 [Genistein]
effect on collagen and glycosaminoglycan synthesis (words, Table 3) ([1]; 10 μM, in the presence of 0.1 mM H2O2): did not show significant effect | effect on collagen and glycosaminoglycan synthesis (words, Table 2) ([1]; 10 uM, without H2O2): did not show significant effect

vitamin E [Vit. E]
% DPPH radical scavenging ([2]; 0.01 mM): 70.1% | % DPPH radical scavenging ([2]; 0.1 mM): 86.8%

O=C1O[C@H]([C@@H](O)CO)C(O)=C1O [Vit. C, Vitamin C]
% DPPH radical scavenging ([2]; 0.001 mM): 75.0% | % DPPH radical scavenging ([2]; 0.01 mM): 99.3%

Vitamin A
activity on collagen and glycosaminoglycan synthesis (words, FIG. 2) ([1]; 1 μM, in the presence of 0.05 mM H2O2): did not show significant activity | activity on collagen and glycosaminoglycan synthesis compared to control (words, FIG. 1) ([1]; 1 μM, without H2O2): did not show significant activity | effect on collagen and glycosaminoglycan synthesis (words, Table 5) ([1]; 10 μM, UV 365 nm at 20 mJ/cm^2): did not show significant effect | effect on collagen and glycosaminoglycan synthesis (words, Table 4) ([1]; 10 μM, no UV): did not show significant effect
